The source of these data is patent publication US9499493B2, “2,4-pyrimidinediamine compounds and their uses” (Rigel Pharmaceuticals, Inc., priority 2002, dated 2016).

Structures can show the parent of a compound that is named as a salt.

For experiment [1], the system named is cultured human mast cells (CHMC). The experiment is described as follows: CHMC low cell density IgE activation: tryptase assay. In kind it is cell-based. Particulars: anti-IgE. Summed up: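 Degranulation was triggered with anti-IgE for 30 minutes at 37° C in cultured human mast cells seeded at low density (1000-1500 cells/well, chosen by donor) after a 1 hr equilibration in MT buffer. Released tryptase in cleared supernatant was quantified with a tryptase substrate at room temperature for 30 minutes.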

For experiment [2] the test system is unchanged. The experiment is described as follows: CHMC low cell density ionomycin activation: tryptase assay. In kind it is cell-based.

As usually defined, the IC50 is the concentration needed to halve the response being measured. On to `Fc1cnc(Nc2cccc(C(F)(F)F)c2)nc1Nc1ccc2c(c1)OCCO2` [R926805], for which the half-inhibitory concentration (IC50) was 764 nM in experiment [1] and more than 10000 nM in experiment [2].
With `CCOC(=O)COc1cccc(Nc2ncc(F)c(Nc3ccc(-n4cnc(Cl)c4Cl)cc3)n2)c1` [R926809, N4-[4-(4,5-Dichloro-1H-imidazol-1-yl)phenyl]-5-fluoro-N2-(3-ethoxycarbonylmethyleneoxyphenyl)-2,4-pyrimidinediamine], the IC50 in experiment [1] was 780 nM; in experiment [2], 3050 nM.
Regarding `CNC(=O)COc1cccc(Nc2nc(Nc3cc(OC)cc(OC)c3)ncc2F)c1` [R926810, N2-(3,5-Dimethoxyphenyl)-N4-[3-(N-methylamino)carbonylmethyleneoxyphenyl)-5-fluoro-2,4-pyrimidinediamine], the half-maximal inhibitory concentration (IC50) in experiment [1] was 1220 nM; in experiment [2], more than 10000 nM.
Taken in the same sequence, the figures for `O=C(COc1cccc(Nc2ncc(F)c(Nc3ccc4c(c3)OCCO4)n2)c1)NCCOC(=O)CCCCC1SCC2NC(=O)NC21` (stereo not drawn) [R926811, N4-(3,4-Ethylenedioxyphenyl)-5-fluoro-N2-[3-[N-2-(D)-(+)-biotinylethylamino]carbonylmethyleneoxyphenyl]-2,4-pyrimidinediamine] were 3660 nM and more than 10000 nM.
In the case of `CNC(=O)COc1cccc(Nc2ncc(F)c(Nc3ccc(-n4cnc(Cl)c4Cl)cc3)n2)c1` [R926812, N4-[4-(4,5-Dichloro-1H-imidazol-1-ylphenyl)]-5-fluoro-N2-[3-(N-methylamino)carbonylmethyleneoxyphenyl]-2,4-pyrimidinediamine], the IC50 is 185 nM in experiment [1] and more than 10000 nM in experiment [2].
Taken in the same sequence, the figures for `CNC(=O)c1cc2cccc(Nc3ncc(F)c(Nc4ccc5c(c4)OCCO5)n3)c2[nH]1` [R926815] were 1180 nM and more than 10000 nM.
Turning to `CNC(=O)COc1cccc(Nc2ncc(F)c(Nc3ccc4c(c3)OCCO4)n2)c1` [R926826, N4-(3,4-Ethylenedioxyphenyl)-5-fluoro-N2-[3-(N-methylamino)carbonylmethyleneoxyphenyl]-2,4-pyrimidinediamine Trifluoro Acetic Acid Salt], the figures for the IC50 in experiment [1] and in experiment [2] (Acetic Acid Salt) were 613 nM and more than 10000 nM, respectively.
For `CCOc1ccc(Nc2nc(Nc3cccc(OCC(=O)NC)c3)ncc2F)cc1` [R926827, N4-(4-Ethoxyphenyl)-5-fluoro-N2-[3-(N-methylamino)carbonylmethyleneoxyphenyl]-2,4-pyrimidinediamine], the half-maximal inhibitory concentration (IC50) in experiment [1] was 1100 nM; in experiment [2], more than 10000 nM.
Taken in the same sequence, the figures for `CNC(=O)COc1cc(Nc2ncc(F)c(Nc3ccc4c(c3)OCCO4)n2)ccc1OC` [R926828, N4-(3,4-Ethylenedioxyphenyl)-5-fluoro-N2-[4-methoxy-3-(N-methylamino)carbonylmethyleneoxyphenyl]-2,4-pyrimidinediamine] were 306 nM and more than 10000 nM.
Taken in the same sequence, the figures for `CNC(=O)COc1cc(Nc2ncc(F)c(Nc3cccc(O)c3)n2)ccc1OC` [R926829, 5-Fluoro-N4-(3-hydroxyphenyl)-N2-[4-methoxy-3-(N-methylamino)carbonylmethyleneoxyphenyl]-2,4-pyrimidinediamine] were 688 nM and more than 10000 nM.
Taken in the same sequence, the figures for `CNC(=O)COc1cccc(Nc2ncc(F)c(Nc3cccc(Cl)c3)n2)c1` [R926832, N4-(3-Chlorophenyl)-5-fluoro-N2-[3-(N-methylamino)carbonylmethyleneoxyphenyl]-2,4-pyrimidinediamine] were 365 nM and more than 10000 nM.
Take `CNC(=O)COc1cccc(Nc2ncc(F)c(Nc3cc(OC)cc(C(F)(F)F)c3)n2)c1` [R926833, 5-Fluoro-N4-(3-methoxy-5-trifluoromethylphenyl)-N2-[3-(N-methylamino)carbonylmethyleneoxyphenyl]-2,4-pyrimidinediamine]: the IC50 in experiment [1] was 1130 nM; in experiment [2] it was more than 10000 nM.
Taken in the same sequence, the figures for `CNC(=O)COc1cccc(Nc2ncc(F)c(Nc3ccc(OC)c(O)c3)n2)c1` [R926834, 5-Fluoro-N4-(3-hydroxy-4-methoxyphenyl)-N2-[3-(N-methylamino)carbonylmethyleneoxyphenyl]-2,4-pyrimidinediamine] were 145 nM and more than 10000 nM.
Taken in the same sequence, the figures for `CNC(=O)COc1cccc(Nc2ncc(F)c(Nc3ccc(OC)c(C(F)(F)F)c3)n2)c1` [R926835, 5-Fluoro-N4-(4-methoxy-3-trifluoromethylphenyl)-N2-[3-(N-methylamino)carbonylmethyleneoxyphenyl]-2,4-pyrimidinediamine] were 296 nM and more than 10000 nM.
With `OB(O)c1cccc(Nc2ncc(F)c(Nc3cccc(B(O)O)c3)n2)c1` [R926836, N2,N4-Bis(3-boronylphenyl)-5-fluoro-2,4-pyrimidinediamine], the results for the half-inhibitory concentration (IC50) in experiment [1] and in experiment [2] were 10000 nM and more than 10000 nM, respectively.
Taken in the same sequence, the figures for `OB(O)c1cccc(Nc2ncc(F)c(Nc3ccc4c(c3)OCCO4)n2)c1` [R926837, N2-(3-Boronylphenyl)-N4-(3,4-ethylenedioxyphenyl)-5-fluoro-2,4-pyrimidinediamine] were 2990 nM and more than 10000 nM.
Taken in the same sequence, the figures for `CNC(=O)COc1cccc(Nc2ncc(F)c(Nc3ccc(F)c(C(F)(F)F)c3)n2)c1` [R926838, 5-Fluoro-N4-(4-fluoro-3-trifluoromethylphenyl)-N2-[3-(N-methylamino)carbonylmethyleneoxyphenyl]-2,4-pyrimidinediamine] were 583 nM and more than 10000 nM.
Taken in the same sequence, the figures for `CNC(=O)COc1cccc(Nc2ncc(F)c(Nc3ccc(C)c(Cl)c3)n2)c1` [R926839, N4-(3-Chloro-4-methylphenyl)-5-fluoro-N2-[3-(N-methylamino)carbonylmethyleneoxyphenyl]-2,4-pyrimidinediamine] were 161 nM and more than 10000 nM.
For `CNC(=O)COc1cccc(Nc2ncc(F)c(Nc3cc(C)ccc3Cl)n2)c1` [R926840, N4-(2-Chloro-5-methylphenyl)-5-fluoro-N2-[3-(N-methylamino)carbonylmethyleneoxyphenyl]-2,4-pyrimidinediamine], the results for the IC50 in experiment [1] and in experiment [2] were 1100 nM and more than 10000 nM, respectively.
Taken in the same sequence, the figures for `Oc1cccc(Nc2nc(Nc3ccc(C(F)(F)F)c(Cl)c3)ncc2F)c1` [R926844, N2-(3-Chloro-4-trifluoromethylphenyl)-5-fluoro-N4-(3-hydroxyphenyl)-2,4-pyrimidinedimine] were 1100 nM and more than 10000 nM.
Taken in the same sequence, the figures for `Oc1cccc(Nc2nc(Nc3cc(Br)cc(C(F)(F)F)c3)ncc2F)c1` [R926846, N2-(3-Bromo-5-trifluorophenyl)-5-fluoro-N4-(3-hydroxyphenyl)-2,4-pyrimidinediamine] were 860 nM and 6260 nM.
Taken in the same sequence, the figures for `NC(=O)Cn1c(=O)oc2ccc(Nc3ncc(F)c(Nc4ccc5c(c4)OCCO5)n3)cc21` [R926847, N2-[5-(N-Aminocarbonylmethylene-2-oxo-1,3-oxazol-3(2H)-yl)phenyl]-N4-(3,4-ethylenedioxyphenyl)-5-fluoro-2,4-pyrimidinediamine] were 1480 nM and 6260 nM.
Regarding `CNC(=O)COc1cccc(Nc2ncc(F)c(Nc3cccc(-c4nnn[nH]4)c3)n2)c1` [R926855, 5-Fluoro-N2-[3-(N-methylamino)carbonylmethyleneoxyphenyl]-N4-[3-(tetrazol-5-yl)phenyl]-2,4-pyrimidinediamine], the half-maximal inhibitory concentration (IC50) in experiment [1] and in experiment [2] was more than 10000 nM in each case.
Turning to `CNC(=O)COc1cccc(Nc2ncc(F)c(Nc3cc(C(=O)OC)cc(C(F)(F)F)c3)n2)c1` [R926862, 5-Fluoro-N2-[3-(N-methylamino)carbonylmethyleneoxyphenyl]-N4-(3-methoxycarbonyl-5-trifluoromethylphenyl)-2,4-pyrimidinediamine], the IC50 in experiment [1] is 774 nM; in experiment [2] it was more than 10000 nM.
Taken in the same sequence, the figures for `CCOC(=O)Cc1nnc(-c2cccc(Nc3ncc(F)c(Nc4cccc(O)c4)n3)c2)o1` [R926874] were 638 nM and more than 10000 nM.
As to `CNC(=O)COc1cccc(Nc2ncc(F)c(Nc3ccc(OC(F)(F)F)cc3)n2)c1` [R926879, 5-Fluoro-N2-[3-(N-methylamino)carbonylmethyleneoxyphenyl]-N4-[4-trifluoromethoxyphenyl]-2,4-pyrimidinediamine], the IC50 in experiment [1] was 397 nM; in experiment [2] it was more than 10000 nM.
Taken in the same sequence, the figures for `CNC(=O)COc1cccc(Nc2ncc(F)c(Nc3ccc(Cl)c(-c4nc5ccccc5s4)c3)n2)c1` [R926900, N4-[3-(Benzothiazol-2-yl)-4-chlorophenyl]-5-fluoro-N2-[3-[(N-methylamino)carbonylmethyleneoxy]phenyl)-2,4-pyrimidinediamine] were more than 10000 nM and more than 10000 nM.
Taken in the same sequence, the figures for `CNC(=O)COc1cccc(Nc2ncc(F)c(Nc3ccc(C)c(OC)c3)n2)c1` [R926902, 5-Fluoro-N2-[3-[(N-methylamino)carbonylmethyleneoxy]phenyl]-N4-(3-methoxy-4-methylphenyl)-2,4-pyrimidinediamine] were 1370 nM and 4590 nM.
Taken in the same sequence, the figures for `COC(=O)c1cc2ccc(Nc3ncc(F)c(Nc4cccc(O)c4)n3)cc2[nH]1` [R926903] were 243 nM and more than 10000 nM.
For the compound `CNC(=O)COc1cccc(Nc2ncc(F)c(Nc3ccc4c(c3)CNCC4)n2)c1` [R926914, 5-Fluoro-N4-(1,2,3,4-tetrahydroisoquin-7-yl)-N2-[3-[(N-methylamino)carbonylmethyleneoxy]phenyl]-2,4-pyrimidinediamine], the results for the IC50 in experiment [1] and in experiment [2] were 1860 nM and more than 10000 nM, respectively.
Taken in the same sequence, the figures for `CNC(=O)C(C)(C)Oc1cccc(Nc2ncc(F)c(Nc3ccc4c(c3)OCCO4)n2)c1` [R926915, N4-(3,4-Ethylenedioxyphenyl)-5-fluoro-N2-[3-[(N-methylamino)carbonyl-1,1-dimethylmethyleneoxy]phenyl]-2,4-pyrimidinediamine] were 1710 nM and more than 10000 nM.
Taken in the same sequence, the figures for `CNC(=O)COc1cccc(Nc2ncc(F)c(Nc3cccc(OC(=O)N(C(=O)NC(C)C)C(C)C)c3)n2)c1` [R926916] were 1960 nM and more than 10000 nM.
